Data taken from ChEMBL document CHEMBL1201862, “PubChem BioAssay data set” (2004).
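Assay format: 96-well plates, 48-hour exposure. GI50 is the concentration that inhibits growth by half.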 The source made the active and inactive calls. Cut-off read from the data, not from the text of the source: active = GI50 up to about 1.1 µM and inactive = higher.

Assays:
Assay in all cases: DTP human tumour cell line panel, 48 h
[1] = test system: KM-20L2
[2] = test system: SN12C
[3] = test system: DMS-273
[4] = test system: SNB-19
[5] = test system: MOLT-4
[6] = test system: KM12
[7] = test system: HCT-15
[8] = test system: CAKI-1
[9] = test system: A549
[10] = test system: DLD-1
[11] = test system: OVCAR-8
[12] = test system: HL-60
[13] = test system: K562
[14] = test system: LXFL 529
[15] = test system: HOP-18
[16] = test system: UO-31
[17] = test system: HOP-62
[18] = test system: SK-MEL-2
[19] = test system: HCT-116
[20] = test system: SK-MEL-28
[21] = test system: SR
[22] = test system: EKVX
[23] = test system: UACC-62
[24] = test system: XF498
[25] = test system: 786-0
[26] = test system: SNB-78
[27] = test system: NCI-H23
[28] = test system: SNB-75
[29] = test system: IGROV-1
[30] = test system: RXF 393
[31] = test system: M19-MEL
[32] = test system: SK-OV-3
[33] = test system: ACHN
[34] = test system: OVCAR-3
[35] = test system: SF-295
[36] = test system: OVCAR-4
[37] = test system: U-251
[38] = test system: HT-29
[39] = test system: CCRF-CEM
[40] = test system: COLO 205
[41] = test system: RPMI-8226
[42] = test system: HOP-92
[43] = test system: DMS-114
[44] = test system: HCC 2998
[45] = test system: A498
[46] = test system: SW-620
[47] = test system: RXF 631
[48] = test system: UACC-257
[49] = test system: NCI-H460
[50] = test system: M14
[51] = test system: SF-539
[52] = test system: SK-MEL-5
[53] = test system: Malme-3M
[54] = test system: T47D
[55] = test system: MCF7
[56] = test system: TK-10
[57] = test system: Hs-578T
[58] = test system: MDA-N
[59] = test system: BT-549
[60] = test system: LOX IMVI
[61] = test system: OVCAR-5
[62] = test system: MDA-MB-435
[63] = test system: SF-268
[64] = test system: MDA-MB-231
[65] = test system: DU-145
[66] = test system: NCI/ADR-RES
[67] = test system: NCI-H522
[68] = test system: NCI-H226
[69] = test system: PC-3

CCOC1c2nc3ccccc3nc2-c2ccccc2N1C(C)=O (centres undefined)
GI50 [1]: > 100000 nM (inactive) | GI50 [2]: > 100000 nM (inactive) | GI50 [3]: 93300 nM (inactive) | GI50 [4]: > 100000 nM (inactive) | GI50 [5]: > 100000 nM (inactive) | GI50 [6]: > 100000 nM (inactive) | GI50 [7]: > 100000 nM | GI50 [8]: > 100000 nM (inactive) | GI50 [9]: > 100000 nM (inactive) | GI50 [10]: > 100000 nM (inactive) | GI50 [11]: 48200 nM (inactive) | GI50 [12]: > 100000 nM (inactive) | GI50 [13]: 83000 nM (inactive) | GI50 [14]: 70600 nM (inactive) | GI50 [15]: 51600 nM (inactive) | GI50 [16]: > 100000 nM (inactive) | GI50 [17]: > 100000 nM (inactive) | GI50 [18]: 81700 nM (inactive) | GI50 [19]: > 100000 nM (inactive) | GI50 [20]: > 100000 nM (inactive) | GI50 [21]: > 100000 nM (inactive) | GI50 [22]: > 100000 nM (inactive) | GI50 [23]: > 100000 nM (inactive) | GI50 [24]: > 100000 nM (inactive) | GI50 [25]: 56800 nM (inactive) | GI50 [26]: > 100000 nM (inactive) | GI50 [27]: > 100000 nM (inactive) | GI50 [28]: 46200 nM (inactive) | GI50 [29]: > 100000 nM (inactive) | GI50 [30]: 28300 nM (inactive) | GI50 [31]: > 100000 nM (inactive) | GI50 [32]: > 100000 nM (inactive) | GI50 [33]: > 100000 nM (inactive) | GI50 [34]: > 100000 nM (inactive) | GI50 [35]: 69300 nM (inactive) | GI50 [36]: 74600 nM (inactive) | GI50 [37]: > 100000 nM (inactive) | GI50 [38]: > 100000 nM (inactive) | GI50 [39]: > 100000 nM (inactive) | GI50 [40]: > 100000 nM (inactive) | GI50 [41]: > 100000 nM (inactive) | GI50 [42]: 29200 nM (inactive) | GI50 [43]: > 100000 nM (inactive) | GI50 [44]: > 100000 nM (inactive) | GI50 [45]: > 100000 nM (inactive) | GI50 [46]: > 100000 nM (inactive) | GI50 [47]: 74500 nM (inactive) | GI50 [48]: > 100000 nM (inactive) | GI50 [49]: > 100000 nM (inactive) | GI50 [50]: > 100000 nM (inactive) | GI50 [51]: > 100000 nM (inactive)

CNCCCNc1c2ccccc2nc2cccc([N+](=O)[O-])c12
GI50 [1]: 4.16 nM (active) | GI50 [2]: 5.61 nM (active) | GI50 [3]: 15.2 nM (active) | GI50 [4]: 7.69 nM (active) | GI50 [5]: 2.43 nM (active) | GI50 [52]: 5.07 nM (active) | GI50 [6]: 6.4 nM (active) | GI50 [7]: 9.57 nM | GI50 [8]: 7.53 nM (active) | GI50 [53]: 4.3 nM (active) | GI50 [9]: 1.87 nM (active) | GI50 [54]: 2.29 nM (active) | GI50 [10]: 3.03 nM (active) | GI50 [11]: 3.72 nM (active) | GI50 [12]: 10 nM (active) | GI50 [13]: 4.07 nM (active) | GI50 [14]: 6.65 nM (active) | GI50 [15]: 23.7 nM (active) | GI50 [16]: 8.45 nM (active) | GI50 [55]: 1.43 nM (active) | GI50 [17]: 3.73 nM (active) | GI50 [56]: 6.75 nM (active) | GI50 [18]: 3.32 nM (active) | GI50 [19]: 2.42 nM (active) | GI50 [20]: 10.9 nM (active) | GI50 [57]: 2.99 nM (active) | GI50 [22]: 8.09 nM (active) | GI50 [23]: 4.68 nM (active) | GI50 [24]: 2.47 nM (active) | GI50 [25]: 3.23 nM (active) | GI50 [26]: 2.33 nM (active) | GI50 [58]: 1.6 nM (active) | GI50 [59]: 2.3 nM (active) | GI50 [27]: 1.93 nM (active) | GI50 [28]: 4.38 nM (active) | GI50 [60]: 6.04 nM (active) | GI50 [29]: 7.26 nM (active) | GI50 [30]: 0.346 nM (active) | GI50 [31]: 3.87 nM (active) | GI50 [61]: 4.59 nM (active) | GI50 [62]: 1.66 nM (active) | GI50 [63]: 2.25 nM (active) | GI50 [64]: 1.58 nM (active) | GI50 [32]: 10.3 nM (active) | GI50 [33]: 2.51 nM (active) | GI50 [34]: 4.49 nM (active) | GI50 [35]: 3.4 nM (active) | GI50 [36]: 1.74 nM (active) | GI50 [65]: 3.78 nM (active) | GI50 [66]: 8.61 nM (active) | GI50 [37]: 3.44 nM (active) | GI50 [38]: 3.37 nM (active) | GI50 [67]: 0.449 nM (active) | GI50 [68]: 18 nM (active) | GI50 [39]: 9.86 nM (active) | GI50 [40]: 1.5 nM (active) | GI50 [41]: 3.48 nM (active) | GI50 [42]: 1.83 nM (active) | GI50 [69]: 1.82 nM (active) | GI50 [43]: 2.21 nM (active) | GI50 [44]: 4.45 nM (active) | GI50 [45]: 2.9 nM (active) | GI50 [46]: 3.21 nM (active) | GI50 [47]: 28.6 nM (active) | GI50 [48]: 18.9 nM (active) | GI50 [49]: 0.47 nM (active) | GI50 [50]: 4.33 nM (active) | GI50 [51]: 6.34 nM (active)
